The values below come from US10669283B2, “Compound and pharmacologically acceptable salt thereof” (MEIJI SEIKA PHARMA CO., LTD., priority 2016, dated 2020).

Where only a bound is given, the exact number is not on record here.

The subject of data set [1] is PDE4. The experiment in a line: PDE4 inhibition, scintillation proximity assay (SPA). It is filed as biochemical. Conditions: scintillation proximity assay; class symbols; read-out: PDE4 Inhibitory Activity. The procedure, abridged:
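Compound pre-diluted 1:10 in 50 mM Tris-HCl pH 7.4, 8.3 mM MgCl2, 1.7 mM EGTA, 3 mg/mL BSA, then incubated with PDE4 and [2,8-3H]-cAMP for 120 min at room temperature. Product captured on ZnSO4-containing YSi-SPA beads for 15 min; radioactivity counted against no-enzyme blank and DMSO control.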
For orientation: In a scintillation proximity assay essentially only radioactivity close to the scintillant gives light.

The nature of data set [2]: Hepatic metabolic stability (rat liver microsome method). In kind it is in vitro ADME. Particulars: rat liver microsomes 0.5 mg/mL, test substance 1 μM, NADPH 1 mM, 37° C., 30 minutes. The essentials:
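Test compound (1 μM) preincubated with rat liver microsomes (0.5 mg/mL) in 100 mM potassium phosphate pH 7.4 at 37° C; NADPH (1 mM) started reaction, acetonitrile stopped it at 0 and 30 min. LC-MS quantitation; % remaining = 30-min/0-min ×100, graded A ≥75%, B 60–<75%, C 45–<60%, D <45%.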
In general terms: Liver microsomes are vesicles of endoplasmic reticulum, rich in cytochrome P450 enzymes.

For `O=C(N1CCOCC1)C(F)(F)Oc1ccc(-c2nccs2)c2oc(N3CC4CC(C3)N4)nc12` [Example 409, 2-((2-(3,6-diazabicyclo [3.1.1]heptan-3-yl)-7-(thiazol-2-yl)benzo[d]oxazol-4-yl)oxy)-2,2-difluoro-1-morpholino-ethan-1-one], the IC50 in data set [1] was less than 100 nM. In addition, in data set [2], the “Residual ratio (% remaining for 30-minute reaction)” value is “B (60% or more and less than 75%)”.
As to `NC(=O)C(F)(F)Oc1ccc(-c2nccs2)c2oc(N3CC4CC(C3)N4)nc12` [Example 410, 2-((2-(3,6-diazabicyclo [3.1.1]heptan-3-yl)-7-(thiazol-2-yl)benzo[d]oxazol-4-yl)oxy)-2,2-difluoro-acetamide], the IC50 in data set [1] is less than 100 nM. In addition, the “Residual ratio (% remaining for 30-minute reaction)” value in data set [2] is on record as “A (a % remaining rate of 75% or more)”.
In the same order, the values of `O=C(NCCO)C(F)(F)Oc1ccc(-c2nccs2)c2oc(N3CC4CC(C3)N4)nc12` [Example 411, 2-((2-(3,6-diazabicyclo [3.1.1]heptan-3-yl)-7-(thiazol-2-yl)benzo[d]oxazol-4-yl)oxy)-2,2-difluoro-N-(2-hydroxy-ethyl) acetamide] are less than 100 nM and “A (a % remaining rate of 75% or more)”.
The matching figures for `O=C(N1CC(O)C1)C(F)(F)Oc1ccc(-c2nccs2)c2oc(N3CC4CC(C3)N4)nc12` [Example 412, 2-((2-(3,6-diazabicyclo [3.1.1]heptan-3-yl)-7-(thiazol-2-yl)benzo[d]oxazol-4-yl)oxy)-2,2-difluoro-1-(3-hydroxy-azetidin-1-yl)ethan-1-one]: less than 100 nM and “A (a % remaining rate of 75% or more)”.
With `FC(F)(F)c1ccc(Oc2cc(-c3nccs3)c3oc(N4CC5CC(C4)N5)nc3c2)nc1` [Example 413, 2-(3,6-diazabicyclo [3.1.1]heptan-3-yl)-7-(thiazol-2-yl)-5-((5-(trifluoro-methyl)pyridin-2-yl)oxy) benzo[d] oxazole], the IC50 in data set [1] is less than 100 nM. For the same compound, the “Residual ratio (% remaining for 30-minute reaction)” value in data set [2] was “A (a % remaining rate of 75% or more)”.
